A short description of one data set: in vitro. Type of data set: in vitro ADME. To be noted: rat; for Plasma bound / Plasma unbound: 4 h. How it is done: Plasma protein binding assays were also performed (Table 2). Compounds were incubated with rat plasma for 4 hours. The percent of F-4N recovered was analyzed by LC-MS. Warfarin was used as a control for a compound with high plasma protein binding. Analysis performed by Cyprotex (Framingham, MA).

A further data set has as its system wild type mice. The data set can be described thus: Comparative flavonoid efficacy and toxicity in aged brain and liver (real-time PCR). In kind it is in vivo, mouse. The text has this: Five-month-old and twenty-eight month old wild type mice were oral gavage treated with the indicated concentrations of flavonoids (F, Q, compound 19, or compound 20) or vehicle for four consecutive days and were euthanized one week later.

In data set [1] the test system is senescent human adult lung fibroblasts. Description: Apoptosis of senescent lung fibroblasts (cleaved caspase-3, DAPI). Type of data set: cell-based. The conditions noted are these: replicatively senescent human adult lung fibroblasts, 96 hours, 6-point dose-response, N=3; for EC50: read-out: Senescent fibroblast apoptosis EC50. How it is done: (§1) Human adult lung fibroblasts were replicatively passaged until senescence (confirmed by RNA and senescence associated beta galactosidase staining). In a parallel experiment, low passage proliferating fibroblasts from the same donor were compared. Cells were plated into 96-well plates and treated with the indicated compound (6-point dose-response) and incubated for 96 hours. Cells were then fixed using 4% PFA, permeabilized using 0.25% triton x-100, and nuclear stained using a primary antibody for cleaved caspase-3, secondary fluorescence conjugated antibody, and DAPI. Cells were then imaged using a 4× objective on a Cytation5 microscope and cell counts were quantified using automated software (Biotek Gen5). Data shown are the EC50 values calculated for each compounds efficacy to induce apoptosis in senescence vs. proliferating lung fibroblasts, from the calculated dose-response curves, N=3 independent experiments.

Data set [2] relates to low passage proliferating fibroblasts. The data set can be described thus: Apoptosis of low passage proliferating lung fibroblasts (cleaved caspase-3, DAPI). In kind it is cell-based, human. To be noted: low passage proliferating fibroblasts from the same donor, 96 hours, 6-point dose-response, N=3; for EC50: read-out: Proliferating fibroblast apoptosis EC50. How it is done: as §1

The subject of data set [3] is Human adult lung fibroblasts (passage 3). Description: Fibroblast activation (TGFβ, alpha-smooth muscle actin). The conditions noted are these: +2 ng/mL TGFβ, 96 hours, alpha-smooth muscle actin intensity. Type of data set: cell-based. How it is done: Human adult lung fibroblasts (passage 3) were plated into 96-well plates and treated with the indicated compound (6-point dose-response) +2 ng/mL TGFβ to stimulated fibroblast activation. Cells were incubated for 96 hours, fixed using 4% PFA, permeabilized using 0.25% triton x-100, and stained using a primary antibody recognizing alpha-smooth muscle actin and a secondary fluorescent conjugated antibody, and DAPI. Cells were then imaged using a 4× objective on a Cytation5 microscope and alpha-smooth muscle actin intensity was quantified using automated software (Biotek Gen5). Data shown are the IC50 values for each compounds efficacy at reducing expression of alpha-smooth muscle actin, calculated from the calculated dose-response curves, N=3 independent.

Data set [4] has as its system senescent human adult lung fibroblasts. Description: Senescent fibroblast survival (DAPI cell counts). Type of data set: cell-based. The conditions noted are these: 96 hours, 3 point and 6-point dose response. As for the experimental part:
(§2) For senescent fibroblast survival experiments, human adult lung fibroblasts were replicatively passaged until senescence (confirmed by RNA and senescence associated beta galactosidase staining). Cells were then plated into 96-well plates and treated with the indicated compound and incubated for 96 hours. Cells were then fixed using 4% PFA, permeabilized using 0.25% triton x-100, and nuclear stained using DAPI. Cells were then imaged using a 4× objective on a Cytation5 microscope and cell counts were quantified using automated software (Biotek Gen5). Data shown are plotted as % survival, normalized to the vehicle treated well. Mean+/−SEM, N=3 independent experiments. For the TGFβ stimulated collagen deposition experiments (square datapoints), human adult lung fibroblasts (passage 3) were plated into 96-well plates and treated with the indicated compound +2 ng/mL TGFβ to stimulated collagen expression. Cells were incubated for 96 hours, fixed using 4% PFA, permeabilized using 0.25% triton x-100, and stained using a primary antibody recognizing type I collagen and a secondary infrared conjugated antibody. Wells were then imaged at 1× using a Odyssey Lx (LI-CORE) infrared imager and collagen intensity was quantified using automated software. Data shown are plotted as % collagen intensity, normalized to the vehicle treated well. Mean+/−SEM, N=3 independent experiments.

Data set [5] has as its system Human adult lung fibroblasts (passage 3). Description: TGFβ stimulated collagen deposition. The conditions noted are these: +2 ng/mL TGFβ, 96 hours. Type of data set: cell-based. How it is done: as §2
Another data set concerns col1a2-mTmG mice. The data set can be described thus: Bleomycin injury and lung fibrosis, flow sorted lung cell populations, qPCR. In kind it is in vivo, mouse. The conditions noted are these: daily from day 10 after bleomycin injury, lungs sorted on day 14. As for the experimental part:
Seven days prior to injury col1a2-mTmG mice were treated with tamoxifen to turn on GFP expression in collagen producing fibroblasts. F-19 was administered daily starting on day 10 after injury, lungs were isolated, and lung tissue was flow sorted for fibroblasts, epithelial cells, and leukocytes on day 14. The sorted cells were subjected to RNA isolation followed by qPCR analysis of the indicated genes in each population of cells. N=3 mice/group.
(In general: Quantitative PCR measures a nucleic acid by following its amplification.)

Another data set concerns the target T1, DRAK1 (Homo sapiens, UniProt Q9UEE5).
T1 construct: purchased Reaction Biology
T1 sequence (Q9UEE5 1-414): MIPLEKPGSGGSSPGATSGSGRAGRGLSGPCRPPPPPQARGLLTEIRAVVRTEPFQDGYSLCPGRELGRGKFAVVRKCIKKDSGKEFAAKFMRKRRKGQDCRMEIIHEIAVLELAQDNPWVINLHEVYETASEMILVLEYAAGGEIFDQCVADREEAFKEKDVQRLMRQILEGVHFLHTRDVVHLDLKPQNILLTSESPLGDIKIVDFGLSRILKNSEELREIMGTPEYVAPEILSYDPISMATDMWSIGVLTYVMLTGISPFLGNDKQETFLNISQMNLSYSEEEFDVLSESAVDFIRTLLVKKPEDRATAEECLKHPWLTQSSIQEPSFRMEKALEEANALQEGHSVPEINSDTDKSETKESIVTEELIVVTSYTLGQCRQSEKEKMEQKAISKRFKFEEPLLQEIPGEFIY
Description: DRAK1 kinase activity assay (radiolabeled ATP, Reaction Biology). To be noted: FIG. 30. Type of data set: biochemical. As for the experimental part: DRAK1 kinase activity was also assessed. […] A DRAK1 kinase activity was performed by Reaction Biology. DRAK1 kinase activity was measured and plotted (FIG. 30).

The EC50 is the midpoint of the concentration-response curve.

Each structure is given as a SMILES string.

Take `O=c1c(O)c(-c2ccc(O)c(O)c2)oc2cc(O)cc(O)c12` [Quercetin, quercetin]: the recovery at 4 h, 5 μM in “in vitro” turned out to be 0.8%. Moreover, in the data set “in vitro” (5 μM), the Plasma bound worked out at 95% and the Plasma unbound was 5.0%. Moreover, the “CD68 expression (indicator of inflammatory activation) in brain or liver” value in the data set with wild type mice (oral gavage four consecutive days, euthanized one week later) is “lack of drug-induced toxicity”.
As for `O=c1c(O)c(-c2ccc(OCc3ccccc3)cc2)oc2ccccc12` [F-20], the 50% effective concentration (EC50) in data set [1] came to 1.5 µM; in data set [2], 27.6 µM; in data set [3] it was 2 µM.
As for `COc1cccc2oc(-c3ccc(OCc4ccccc4)cc3)c(O)c(=O)c12` [5-MeOH—F-20], the results for the half-maximal effective concentration (EC50) in data set [1], in [2] and in data set [3] were 0.35 µM, 5.5 µM and 0.9 µM, respectively.
Take `COc1ccc2oc(-c3ccc(OCc4ccccc4)cc3)c(O)c(=O)c2c1` [6-MeOH—F-20]: the EC50 in data set [1] was 0.8 µM; in data set [2] it was 5.1 µM; in data set [3] it was 2 µM.
Regarding `CCOc1ccc(-c2oc3ccccc3c(=O)c2O)cc1OCC` [2-(3,4-diethoxyphenyl)-3-hydroxy-4h-1-benzopyran-4-one], the “senescent fibroblast survival (in words)” value in data set [4] is on record as “effective toxicity against senescent cells”. Also, the “TGFβ stimulated collagen deposition (in words)” value in data set [5] was “blocked collagen deposition”.
The like results for `CCOc1ccc(-c2oc3ccc(C)cc3c(=O)c2O)cc1OC` [2-(4-ethoxy-3-methoxyphenyl)-3-hydroxy-6-methylchromen-4-one] were, in that order, “effective toxicity against senescent cells” and “blocked collagen deposition”.
For `O=c1c(O)c(-c2ccc(OCc3cccnc3)cc2)oc2ccccc12` [F—3N], the EC50 in data set [1] is 44.1 µM. Besides, the “Proliferating fibroblast apoptosis EC50” value in data set [2] was “inactive”. Besides, in data set [3], the “Fibroblast activation (EC50)” value is “inactive”.
As to `O=c1c(O)c(-c2ccc(O)c(O)c2)oc2cc(O)ccc12` [fisetin], the “CD68 expression (indicator of inflammatory activation) in brain or liver” value in the data set on wild type mice (mouse, in vivo, po) is recorded as “lack of drug-induced toxicity”.
For the molecule `CCOc1ccc(-c2oc3ccccc3c(=O)c2O)cc1OC` [F-19(3MeOH)], the half-maximal effective concentration (EC50) in [2] came to 10.5 µM; in data set [3], 6.4 µM.
Consider `O=c1c(O)c(-c2ccc(OCc3ccccn3)cc2)oc2ccccc12` [F—2N], for which the “Senescent fibroblast apoptosis EC50” value in [1] was “inactive”. In addition, the “Proliferating fibroblast apoptosis EC50” value in data set [2] was “inactive”. Further, the “Fibroblast activation (EC50)” value in data set [3] is “inactive”.
As for `CC(=O)CC(c1ccccc1)c1c(O)c2ccccc2oc1=O` (stereo not shown) [Warfarin], the recovery at 4 h, 2 μM in “in vitro” is 100%. Besides, in the data set “in vitro” (2 μM), the Plasma bound was found to be 99% and the Plasma unbound is 0.971%.
Take `CCOc1ccc(-c2oc3ccccc3c(=O)c2O)cc1` [F-19]: the results for the half-maximal effective concentration (EC50) in data set [1], in data set [2] and in data set [3] were 2.4 µM, 24.5 µM and 2.4 µM, respectively. The “senescence markers or inflammatory cytokines in leukocytes (CD45+ cells), qPCR” value in the data set with col1a2-mTmG mice is on record as “No changes”.
`COc1cccc2oc(-c3ccc(OCc4ccncc4)cc3)c(O)c(=O)c12` [5-MeOH—F—4N]: in data set [1], the “Senescent fibroblast apoptosis EC50” value is “inactive”. In data set [2], the “Proliferating fibroblast apoptosis EC50” value was “inactive”. The same molecule displayed an EC50 in data set [3] of 2.1 µM. The DRAK1 kinase activity result on DRAK1 is “inactive”.
`CCOc1ccc(-c2oc3ccc(OC)cc3c(=O)c2O)cc1` [6-MeOH—F-19]: the EC50 in data set [1] is 2.7 µM; in [2], 15.1 µM; in data set [3], 4 µM.
For `CCCOc1ccc(-c2oc3ccccc3c(=O)c2O)cc1` [F-19(Me)], the values for the EC50 in data set [1], in data set [2] and in data set [3] were 3.4 µM, 19.5 µM and 4 µM, respectively.
The like results for `O=c1c(O)c(-c2ccc(OCC3CC3)cc2)oc2ccccc12` [F—CP] were, in that order, 0.9 µM, 10.9 µM and 1.1 µM.

(Values after patent US20250368629A1, “FLAVONOID COMPOUNDS AND METHODS AND MATERIALS FOR USING FLAVONOID COMPOUNDS TO TREAT FIBROTIC CONDITIONS” (Mayo Foundation for Medical Education and Research, priority 2022, published 2025).)
